What was measured:
[1] = molecular target: T1, Jurkat cells expressing CXCR4 (Homo sapiens, UniProt P61073); assay: Chemokine (CXCL12-AF647) binding inhibition assay; conditions: CXCL12-AF647 25 ng/mL, read-out: IC50 CXCL-12 binding Jurkat
T1 construct: endogenous in cells; host or cells: Jurkat
Protocol: Chemokine (CXCL12-AF647) Binding Inhibition Assay
Jurkat cells expressing CXCR4 were washed once with assay buffer (Hanks' balanced salt solution with 20 mM HEPES buffer and 0.2% bovine serum albumin, pH 7.4) and then incubated for 15 min at room temperature with the test compounds diluted in assay buffer at dose-dependent concentrations. Subsequently, CXCL12-AF647 (25 ng/mL) was added to the compound-incubated cells. The cells were incubated for 30 min at room temperature. Thereafter, the cells were washed twice in assay buffer, fixed in 1% paraformaldehyde in PBS, and analyzed on the FL4 channel of a FACSCalibur flow cytometer equipped with a 635-nm red diode laser (Becton Dickinson, San Jose, Calif., USA).
The percentages of inhibition of CXCL12-AF647 binding were calculated according to the formula: [1−((MFI−MFINC)/(MFIPC−MFINC))]×100 where MFI is the mean fluorescence intensity of the cells incubated with CXCL12-AF647 in the presence of the inhibitor, MFINC is the mean fluorescence intensity measured in the negative control (i.e., autofluorescence of unlabeled cells), and MFIPC is the mean fluorescence intensity of the positive control (i.e., cells exposed to CXCL12-AF647 alone).

[2] = molecular target: T2, CXCR-4 transfected U87 cell line (U87.CXCR4) (Homo sapiens, UniProt P61073); assay: Intracellular CXCL-12-induced calcium mobilization assay (FLIPR); format: cell-based; conditions: U87.CXCR4 cells; CXCL-12 25-50 ng/mL; compound added 15 min before; read-out: IC50 CXCL-12 Ca^2+ flux U87.CXCR4+
T2 construct: expressed in transfected cells; host or cells: U87 (U87.CXCR4)
Protocol: Example 36: REGA Screening Assay
Intracellular CXCL-12-Induced Calcium Mobilization Assay
Intracellular calcium mobilization induced by chemokines or chemokine-derived peptides were evaluated using a calcium responsive fluorescent probe and a FLIPR system. The CXCR-4 transfected U87 cell line (U87.CXCR4) cells were seeded in gelatine-coated black-wall 96-well plates at 20,000 cells per well and incubated for 12 hours. Cells were then loaded with the fluorescent calcium probe Fluo-2 acetoxymethyl at 4 μM final concentration in assay buffer (Hanks' balanced salt solution with 20 mM HEPES buffer and 0.2% bovine serum albumin, pH 7.4) for 45 min at 37° C. The intracellular calcium mobilization induced by the CXCL-12 (25-50 ng/mL) was then measured at 37° C. by monitoring the fluorescence as a function of time in all the wells simultaneously using a fluorometric imaging plate reader (FLIPR Tetra, Molecular Devices).

in vitro = conditions: human, Caco-2, pH 7.4
Protocol: Example 37: Caco-2 Permeability Assay
The goal of this assay was to evaluate the intestinal absorption potential of drug candidates using Caco-2 cell lines.
HBSS buffer with 0.3% DMSO and 5 μM LY: add 150 μL DMSO and 50 μL LY (5 mM) into 50 ml HBSS buffer (pH 7.4).
HBSS buffer with 0.1% DMSO and 5 μM LY: add 50 μL DMSO and 50 μL LY (5 mM) into 50 mL HBSS buffer (pH 7.4).
HBSS buffer with 0.3% DMSO: add 150 μL DMSO into 50 ml HBSS buffer (pH 7.4).
HBSS buffer with 0.1% DMSO: add 50 μL DMSO into 50 ml HBSS buffer (pH 7.4).
Prepare HBSS buffer with 0.4% DMSO: add 200 μL DMSO into 50 ml HBSS buffer (pH 7.4).
Prepare HBSS buffer with 0.4% DMSO and 5 μM LY: add 200 μL DMSO and 50 μL LY (5 mM) into 50 ml HBSS buffer (pH 7.4).
4. Measure TEER Take cell culture plate out of incubator, wash the cell monolayers with HBSS buffer, and then measure TEER values at Rm temperature. 5. Centrifuge Centrifuge the compound solution (from step 3) at 4000 rpm for 5 min before loading to donor chambers. 6. Dosing Add solution based on the volumes listed in the following table (make sure to take extra 100 μL of donor sample for T0 as Backup).
7. Apical LYT0 samples To determine LY concentration in the apical chember, take 100 μL sample from apical chambers into an opaque plate for LYT0. 8. Prewarm Prewarm apical and basolateral plates at 37° C. for about 5 min, then begin transport by placing the apical plate onto basolateral plate. 9. Incubation Keep the plates in incubator at 37° C. for 90 min. 10. Standard Curve preparation
11. Transport termination Separate the apical plate from the basolateral plate after 90-min incubation.
Receiver sample: 60 μL of receiver sample+60 μL ACN with IS (Osalmid or Imipramine)
Study details: Test concentration 10 μM
Test systems: Caco-2/HBSS solution
Incubation conditions: 0, 90 min at 37° C.
Sample size: Duplicates (n=2)
Bioanalytical method: LC-MS/MS
For Millicell-24 Cell Culture Plates: surface area of the membrane=0.7 cm^2, VA=0.8 mL (A-to-B) or 0.4 mL (B-to-A)
1. Papp values were calculated based on calculated concentrations.
The compound numbers correspond to the compound numbers in Table 1.

T2 sequence (P61073 whole entry): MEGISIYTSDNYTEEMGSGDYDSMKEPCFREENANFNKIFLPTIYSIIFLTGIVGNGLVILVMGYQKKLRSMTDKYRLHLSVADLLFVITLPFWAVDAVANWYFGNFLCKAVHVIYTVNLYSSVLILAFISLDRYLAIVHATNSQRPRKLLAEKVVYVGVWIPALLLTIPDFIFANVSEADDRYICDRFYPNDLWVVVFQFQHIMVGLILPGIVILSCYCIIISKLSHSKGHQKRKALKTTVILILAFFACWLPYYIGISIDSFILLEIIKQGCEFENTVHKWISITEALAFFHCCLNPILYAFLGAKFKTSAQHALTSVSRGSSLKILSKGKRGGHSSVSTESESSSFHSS
T1 sequence (P61073 whole entry): as above

| IC50 [1] | IC50 [2] | Papp A→B at 90 min, 10 μM (in vitro) | Papp B→A at 90 min, 10 μM (in vitro) | efflux ratio at 90 min, 10 μM (in vitro) | SMILES |
| --- | --- | --- | --- | --- | --- |
| 0.01 to 100 nM | 0.01 to 100 nM | 0.1 to 10 ×10⁻⁶ cm/s | 10 to 30 ×10⁻⁶ cm/s | 0.1 to 10 | Cc1cccnc1[C@@H]1CCC[C@H](c2nc3cccc(C4CCN(C)CC4)c3[nH]2)N1 [I-151] |
| 0.01 to 100 nM | 100 to 1000 nM | 10 to 30 ×10⁻⁶ cm/s | 10 to 30 ×10⁻⁶ cm/s | 0.1 to 10 | CN1CCN(c2cccc3nc([C@H]4CCC[C@@H](c5nccc6occc56)N4C)[nH]c23)CC1 [I-92] |
| 100 to 1000 nM | ≥ 1000 nM | 10 to 30 ×10⁻⁶ cm/s | 10 to 30 ×10⁻⁶ cm/s | 0.1 to 10 | CN1CCN(c2cccc3nc([C@H]4CCC[C@@H](c5ncn6ccccc56)N4C)[nH]c23)CC1 [I-93] |
| 0.01 to 100 nM | 0.01 to 100 nM | 0.1 to 10 ×10⁻⁶ cm/s | 10 to 30 ×10⁻⁶ cm/s | 0.1 to 10 | Cc1cccnc1[C@@H]1CCC[C@H](c2nc3cccc(N4CCN(C)CC4)c3n2C)N1 [I-123] |
| 100 to 1000 nM | 100 to 1000 nM | 10 to 30 ×10⁻⁶ cm/s | 10 to 30 ×10⁻⁶ cm/s | 0.1 to 10 | CN1CCN(c2cccc3nc([C@H]4CCC[C@@H](c5nccc6c5OCCO6)N4C)[nH]c23)CC1 [I-65] |
| 0.01 to 100 nM | 0.01 to 100 nM | 0.1 to 10 ×10⁻⁶ cm/s | 10 to 30 ×10⁻⁶ cm/s | 0.1 to 10 | Cc1cccnc1[C@@H]1CCC[C@H](c2nc3cccc(OC4CCN(C(C)C)CC4)c3[nH]2)N1C [I-44] |
| 0.01 to 100 nM | 0.01 to 100 nM | 0.1 to 10 ×10⁻⁶ cm/s | 10 to 30 ×10⁻⁶ cm/s | 0.1 to 10 | Cc1cccnc1[C@@H]1CCC[C@H](c2nccn2C2CCN(C)CC2)N1C [I-168] |
| 0.01 to 100 nM | 0.01 to 100 nM | 0.1 to 10 ×10⁻⁶ cm/s | 10 to 30 ×10⁻⁶ cm/s | 0.1 to 10 | CCN1CCC(Oc2cccc3nc([C@H]4CCC[C@@H](c5ncccc5C)N4C)[nH]c23)CC1 [I-43] |
| 0.01 to 100 nM | 0.01 to 100 nM | 0.1 to 10 ×10⁻⁶ cm/s | 10 to 30 ×10⁻⁶ cm/s | 0.1 to 10 | Cc1cccnc1[C@@H]1CCC[C@H](c2nc3cccc(N4C[C@@H](C)N[C@@H](C)C4)c3[nH]2)N1C [I-51] |
| 100 to 1000 nM | ≥ 1000 nM | 0.1 to 10 ×10⁻⁶ cm/s | 10 to 30 ×10⁻⁶ cm/s | 0.1 to 10 | Cc1cccnc1[C@@H]1CCC[C@H](c2nc3ccccc3n2CCCCN2CCN(C)CC2)N1C [I-40] |
| 0.01 to 100 nM | 100 to 1000 nM | 0.1 to 10 ×10⁻⁶ cm/s | 10 to 30 ×10⁻⁶ cm/s | > 30 | Cc1cccnc1[C@@H]1CCC[C@H](c2nc3cccc(N4CCN(C)CC4=O)c3[nH]2)N1C [I-73] |
| ≥ 1000 nM | ≥ 1000 nM | 10 to 30 ×10⁻⁶ cm/s | 10 to 30 ×10⁻⁶ cm/s | 0.1 to 10 | Cc1cccnc1[C@@H]1CCC[C@H](c2nccn2CCc2ccccn2)N1 [I-177] |

More lines, now with the values behind:

| SMILES | IC50 [1] | IC50 [2] | Papp A→B at 90 min, 10 μM (in vitro) | Papp B→A at 90 min, 10 μM (in vitro) | efflux ratio at 90 min, 10 μM (in vitro) |
| --- | --- | --- | --- | --- | --- |
| Cc1cccnc1[C@@H]1CCC[C@H](c2nc3ccccc3n2CC2CCN(C)CC2)N1CC(F)(F)F [I-26] | ≥ 1000 nM | ≥ 1000 nM | 10 to 30 ×10⁻⁶ cm/s | 10 to 30 ×10⁻⁶ cm/s | 0.1 to 10 |
| Cc1cccnc1[C@@H]1CCC[C@H](c2nc3ccccc3n2CCCCN2CCC(F)(F)CC2)N1C [I-41] | 0.01 to 100 nM | ≥ 1000 nM | 0.1 to 10 ×10⁻⁶ cm/s | 0.1 to 10 ×10⁻⁶ cm/s | 0.1 to 10 |
| CC(C)c1cccnc1[C@@H]1CCC[C@H](c2nc3cccc(N4CCN(C)CC4)c3[nH]2)N1C [I-49] | 0.01 to 100 nM | 100 to 1000 nM | 10 to 30 ×10⁻⁶ cm/s | 0.1 to 10 ×10⁻⁶ cm/s | 0.1 to 10 |
| Cc1cccnc1[C@@H]1CCC[C@H](c2nc3cccc(N4C5CCC4CN(C)C5)c3[nH]2)N1C [I-57] | 0.01 to 100 nM | 0.01 to 100 nM | 10 to 30 ×10⁻⁶ cm/s | 10 to 30 ×10⁻⁶ cm/s | 0.1 to 10 |
| Cc1cccnc1[C@@H]1CCC[C@H](c2nc3ccccc3n2CCC#N)N1C [I-160] | 100 to 1000 nM | ≥ 1000 nM | > 30 ×10⁻⁶ cm/s | > 30 ×10⁻⁶ cm/s | 0.1 to 10 |
| Cc1ccnnc1[C@@H]1CCC[C@H](c2nc3cccc(N4CCN(C)CC4)c3[nH]2)N1C [I-84] | 100 to 1000 nM | ≥ 1000 nM | 0.1 to 10 ×10⁻⁶ cm/s | 10 to 30 ×10⁻⁶ cm/s | 10 to 30 |
| Cc1cccnc1[C@@H]1CCC[C@H](c2nc3cccc(OC4CCN(C)CC4)c3[nH]2)N1C [I-42] | 0.01 to 100 nM | 0.01 to 100 nM | 0.1 to 10 ×10⁻⁶ cm/s | 10 to 30 ×10⁻⁶ cm/s | 0.1 to 10 |
| Cc1cccnc1[C@@H]1CCC[C@H](c2nc3ccccc3[nH]2)N1CCCCN [I-1, 4-((2R,6S)-2-(1H-benzo[d]imidazol-2-yl)-6-(3-methylpyridin-2-yl)piperidin-1-yl)butan-1-amine] | 0.01 to 100 nM | 100 to 1000 nM | 0.1 to 10 ×10⁻⁶ cm/s | 0.1 to 10 ×10⁻⁶ cm/s | 10 to 30 |
| Cc1cccnc1[C@@H]1CCC[C@H](c2nc3cccc(N4CCNC5(CC5)C4)c3[nH]2)N1C [I-129] | 0.01 to 100 nM | 100 to 1000 nM | 10 to 30 ×10⁻⁶ cm/s | 10 to 30 ×10⁻⁶ cm/s | 0.1 to 10 |

From US10988465B2, “CXCR4 inhibitors and uses thereof” (X4 Pharmaceuticals, Inc., priority 2016, dated 2021)
